According to patent publication US12421212B2, “Substituted benzenecarboxamides as IL-17A modulators” (DiCE Alpha, Inc., priority 2019, dated 2025):

molecular target: T1, IL-17A/A (Homo sapiens, UniProt Q16552); experiment: IL-17A/A HEK-Blue Cell Assay; type: cell-based; settings: HEK-Blue IL-17A reporter cell line, SEAP readout at A630, 20 hours incubation with IL-17A/A; top concentration 10 uM, 1 uM or 0.3 uM
T1 construct: purchased Genscript Z03228
T1 sequence (Q16552 24-155): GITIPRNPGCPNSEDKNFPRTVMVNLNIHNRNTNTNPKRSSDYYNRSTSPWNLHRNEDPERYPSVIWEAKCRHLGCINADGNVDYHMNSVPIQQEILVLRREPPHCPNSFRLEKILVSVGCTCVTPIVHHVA

SMILES | IL-17A/A inhibition (pIC50)
CCC(=O)N[C@H](Cc1ccc(NC(=O)[C@@H](NC(=O)c2coc3c2C(=O)NCC3)C2CCCCC2)c(F)c1)C(=O)N1CCN(C)CC1 [Compound 708] | X2b (compounds were evaluated up to 1 uM and inhibited activity at 1 uM by less than 20%)
CCC(=O)N[C@H](Cc1ccc(NC(=O)[C@@H](NC(=O)C(C)(C)c2ccccc2)C2CCCCC2)c(F)c1)C(=O)N1CCN(C)CC1 [Compound 709] | X2b (compounds were evaluated up to 1 uM and inhibited activity at 1 uM by less than 20%)
CCC(=O)N[C@H](Cc1ccc(NC(=O)[C@@H](NC(=O)C2(c3ccccc3)CC2)C2CCCCC2)c(F)c1)C(=O)N1CCN(C)CC1 [Compound 710] | X2b (compounds were evaluated up to 1 uM and inhibited activity at 1 uM by less than 20%)
CCC(=O)N[C@H](Cc1ccc(NC(=O)[C@@H](NC(=O)Cc2ccc(OC)nc2)C2CCCCC2)c(F)c1)C(=O)N1CCN(C)CC1 [Compound 711] | X2a (compounds were evaluated up to 1 uM and did not inhibit activity by >80%, however they showed some activity at 1 uM (less than 80% and more than 20%))
CCC(=O)N[C@H](Cc1ccc(NC(=O)[C@@H](NC(=O)C(F)(F)c2ccncc2)C2CCCCC2)c(F)c1)C(=O)N1CCN(C)CC1 [Compound 712] | X2a (compounds were evaluated up to 1 uM and did not inhibit activity by >80%, however they showed some activity at 1 uM (less than 80% and more than 20%))
CCC(=O)N[C@H](Cc1ccc(NC(=O)[C@@H](NC(=O)C(F)(F)c2ccc(=O)n(C)c2)C2CCCCC2)c(F)c1)C(=O)N1CCN(C)CC1 [Compound 713] | X2b (compounds were evaluated up to 1 uM and inhibited activity at 1 uM by less than 20%)
CCC(=O)N[C@H](Cc1ccc(NC(=O)[C@@H](NC(=O)C(F)(F)C2(O)CCCC2)C2CCCCC2)c(F)c1)C(=O)N1CCN(C)CC1 [Compound 715] | X2b (compounds were evaluated up to 1 uM and inhibited activity at 1 uM by less than 20%)
CCC(=O)N[C@H](Cc1ccc(NC(=O)[C@@H](NC(=O)c2cnc(CNS(C)(=O)=O)n2C)C2CCCCC2)c(F)c1)C(=O)N1CCN(C)CC1 [Compound 716] | X2b (compounds were evaluated up to 1 uM and inhibited activity at 1 uM by less than 20%)
CCC(=O)N[C@H](Cc1ccc(NC(=O)[C@@H](NC(=O)c2cnc(CNC(C)=O)n2C)C2CCCCC2)c(F)c1)C(=O)N1CCN(C)CC1 [Compound 717] | X2b (compounds were evaluated up to 1 uM and inhibited activity at 1 uM by less than 20%)
CCC(=O)N[C@H](Cc1ccc(NC(=O)[C@@H](NC(=O)c2ccc(S(=O)(=O)NC)s2)C2CCCCC2)c(F)c1)C(=O)N1CCN(C)CC1 [Compound 718] | X2a (compounds were evaluated up to 1 uM and did not inhibit activity by >80%, however they showed some activity at 1 uM (less than 80% and more than 20%))
CCC(=O)N[C@H](Cc1ccc(NC(=O)[C@H](Cc2ccc(Cl)cc2)NC(=O)c2ccnn2CC)c(F)c1)C(=O)N1CCN(C)CC1 [Compound 722] | X2b (compounds were evaluated up to 1 uM and inhibited activity at 1 uM by less than 20%)
CCC(=O)N[C@H](Cc1ccc(NC(=O)[C@H](Cc2ccc(C(F)(F)F)cc2)NC(=O)c2ccnn2CC)c(F)c1)C(=O)N1CCN(C)CC1 [Compound 723] | X2b (compounds were evaluated up to 1 uM and inhibited activity at 1 uM by less than 20%)
CCC(=O)N[C@H](Cc1ccc(NC(=O)[C@H](Cc2ccc3ccccc3c2)NC(=O)c2ccnn2CC)c(F)c1)C(=O)N1CCN(C)CC1 [Compound 724] | X2b (compounds were evaluated up to 1 uM and inhibited activity at 1 uM by less than 20%)
CCC(=O)N[C@H](Cc1ccc(NC(=O)[C@H](Cc2ccccc2F)NC(=O)c2ccnn2CC)c(F)c1)C(=O)N1CCN(C)CC1 [Compound 725] | X2b (compounds were evaluated up to 1 uM and inhibited activity at 1 uM by less than 20%)
CCC(=O)N[C@H](Cc1ccc(NC(=O)[C@H](Cc2cccc(Cl)c2)NC(=O)c2ccnn2CC)c(F)c1)C(=O)N1CCN(C)CC1 [Compound 726] | X2b (compounds were evaluated up to 1 uM and inhibited activity at 1 uM by less than 20%)
CCC(=O)N[C@H](Cc1ccc(NC(=O)[C@H](Cc2cc(C)cc(C)c2)NC(=O)c2ccnn2CC)c(F)c1)C(=O)N1CCN(C)CC1 [Compound 727] | X2b (compounds were evaluated up to 1 uM and inhibited activity at 1 uM by less than 20%)
CCC(=O)N[C@H](Cc1ccc(NC(=O)[C@@H](NC(=O)c2ccnn2CC)C2Cc3ccccc3C2)c(F)c1)C(=O)N1CCN(C)CC1 [Compound 728] | X2a (compounds were evaluated up to 1 uM and did not inhibit activity by >80%, however they showed some activity at 1 uM (less than 80% and more than 20%))
CCC(=O)N[C@H](Cc1ccc(NC(=O)[C@H](CCC2CCCCC2)NC(=O)c2ccnn2CC)c(F)c1)C(=O)N1CCN(C)CC1 [Compound 729] | X2b (compounds were evaluated up to 1 uM and inhibited activity at 1 uM by less than 20%)

SMILES | IL-17A/A inhibition (pIC50)
CCC(=O)N[C@H](Cc1ccc(NC(=O)[C@H](CC2CCCCC2)NC(=O)c2ccnn2CC)c(F)c1)C(=O)N1CCN(C)CC1 [Compound 730] | X2b (compounds were evaluated up to 1 uM and inhibited activity at 1 uM by less than 20%)
CCC(=O)N[C@H](Cc1ccc(NC(=O)[C@H](Cc2ccccc2Cl)NC(=O)C(F)(F)c2ccc(OC)nc2)c(F)c1)C(=O)N1CCN(C)CC1 [Compound 731] | X2b (compounds were evaluated up to 1 uM and inhibited activity at 1 uM by less than 20%)
CCC(=O)N[C@H](Cc1ccc(NC(=O)[C@@H](NC(=O)c2ccnn2CC)[C@H]2CC[C@H](C(F)(F)F)CC2)c(F)c1)C(=O)N1CCN(C)CC1 [Compound 732] | X2a (compounds were evaluated up to 1 uM and did not inhibit activity by >80%, however they showed some activity at 1 uM (less than 80% and more than 20%))
CCC(=O)N[C@@H](C(=O)N1CCN(C)CC1)[C@@H](C)c1ccc(NC(=O)[C@@H](NC(=O)C(F)(F)C2CCNCC2)C2CCCCC2)c(F)c1 [Compound 733] | X2b (compounds were evaluated up to 1 uM and inhibited activity at 1 uM by less than 20%)
CCC(=O)N[C@@H](C(=O)N1CCN(C)CC1)[C@@H](C)c1ccc(NC(=O)[C@@H](NC(=O)C(F)(F)C2CCN(C)CC2)C2CCCCC2)c(F)c1 [Compound 734] | X2a (compounds were evaluated up to 1 uM and did not inhibit activity by >80%, however they showed some activity at 1 uM (less than 80% and more than 20%))
CCC(=O)N[C@@H](C(=O)N1CCN(C)CC1)[C@@H](C)c1ccc(NC(=O)[C@@H](NC(=O)C(F)(F)C2CCN(CCO)CC2)C2CCCCC2)c(F)c1 [Compound 735] | X2a (compounds were evaluated up to 1 uM and did not inhibit activity by >80%, however they showed some activity at 1 uM (less than 80% and more than 20%))
CCC(=O)N[C@@H](C(=O)N1CCN(C)CC1)[C@@H](C)c1ccc(NC(=O)[C@@H](NC(=O)c2ccnn2-c2ccccc2)C2CCCCC2)c(F)c1 [Compound 738] | X2a (compounds were evaluated up to 1 uM and did not inhibit activity by >80%, however they showed some activity at 1 uM (less than 80% and more than 20%))
CCC(=O)N[C@@H](C(=O)N1CCN(C)CC1)[C@@H](C)c1ccc(NC(=O)[C@@H](NC(=O)CC2CCNCC2)C2CCCCC2)c(F)c1 [Compound 741] | X2b (compounds were evaluated up to 1 uM and inhibited activity at 1 uM by less than 20%)
CCC(=O)N[C@@H](C(=O)N1CCN(C)CC1)[C@@H](C)c1ccc(NC(=O)[C@H](Cc2ccccc2Cl)NC(=O)c2ccnn2CC)c(F)c1 [Compound 742] | X2a (compounds were evaluated up to 1 uM and did not inhibit activity by >80%, however they showed some activity at 1 uM (less than 80% and more than 20%))
CCn1nccc1C(=O)N[C@H](C(=O)Nc1ccc([C@H](C)[C@@H](NC(=O)c2ccn(C)n2)C(=O)N2CCN(C)CC2)cc1F)C1CCCCC1 [Compound 744] | X2a (compounds were evaluated up to 1 uM and did not inhibit activity by >80%, however they showed some activity at 1 uM (less than 80% and more than 20%))
CCn1nccc1C(=O)N[C@H](C(=O)Nc1ccc([C@H](C)[C@@H](NC(=O)c2ccc(CN(C)C)o2)C(=O)N2CCN(C)CC2)cc1F)C1CCCCC1 [Compound 745] | X2b (compounds were evaluated up to 1 uM and inhibited activity at 1 uM by less than 20%)
CCC(=O)N[C@H](Cc1ccc(NC(=O)[C@@H](NC(=O)c2ccnn2CC)C2CCCCC2)c(F)c1)C(=O)N1CCNCC1 [Compound 746] | X2b (compounds were evaluated up to 1 uM and inhibited activity at 1 uM by less than 20%)
CCC(=O)N[C@@H](C(=O)N1CCN(C)CC1)[C@@H](C)c1ccc(NC(=O)[C@@H](NC(=O)c2ccnn2CC)C2CCOCC2)c(F)c1 [Compound 747] | X2b (compounds were evaluated up to 1 uM and inhibited activity at 1 uM by less than 20%)
CCC(=O)N[C@H](Cc1ccc(NC(=O)[C@@H](NC(=O)c2ccnn2CC)C2CCCCC2)c(F)c1)C(=O)N1CCC(N(C)C)CC1 [Compound 748] | X2a (compounds were evaluated up to 1 uM and did not inhibit activity by >80%, however they showed some activity at 1 uM (less than 80% and more than 20%))
CCC(=O)N[C@H](Cc1ccc(NC(=O)[C@@H](NC(=O)c2ccnn2CC)C2CCCCC2)c(F)c1)C(=O)NCCN(C)C [Compound 749] | X2a (compounds were evaluated up to 1 uM and did not inhibit activity by >80%, however they showed some activity at 1 uM (less than 80% and more than 20%))
CCC(=O)N[C@H](Cc1ccc(NC(=O)[C@@H](NC(=O)c2ccnn2CC)C2CCCCC2)c(F)c1)C(=O)N1CC2(CN(C)C2)C1 [Compound 750] | X2b (compounds were evaluated up to 1 uM and inhibited activity at 1 uM by less than 20%)
CCC(=O)N[C@H](Cc1ccc(NC(=O)[C@@H](NC(=O)c2ccnn2CC)C2CCCCC2)c(F)c1)C(=O)N1CC2(CCN(C)CC2)C1 [Compound 751] | X2b (compounds were evaluated up to 1 uM and inhibited activity at 1 uM by less than 20%)
